# Measured values from patent US20240208992A1, “MACROCYCLES AS CFTR MODULATORS” (Idorsia Pharmaceuticals Ltd, priority 2021, published 2024).
# Target: human F508del-CFTR (Homo sapiens, UniProt P13569, DEL508-508)
# Assay: F508del-CFTR cell surface expression (corrector activity), DiscoveRx ß-galactosidase complementation chemiluminescence assay in recombinant U2OS cell line;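 further: U2OS cells co-expressing ProLink-tagged F508del-CFTR and a membrane-anchored enzyme acceptor, where more surface CFTR restores β-galactosidase activity measured by chemiluminescence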
# Settings: U2OS cell line, 16h compound incubation; for EC50: EC50, F508del-CFTR cell surface expression, geomean values; for Emax: U2OS, in relation to the Emax of the corrector lumacaftor (=100%), arithmetic mean values
# human F508del-CFTR, sequence (P13569 with tags, fused parts or gaps DEL508-508): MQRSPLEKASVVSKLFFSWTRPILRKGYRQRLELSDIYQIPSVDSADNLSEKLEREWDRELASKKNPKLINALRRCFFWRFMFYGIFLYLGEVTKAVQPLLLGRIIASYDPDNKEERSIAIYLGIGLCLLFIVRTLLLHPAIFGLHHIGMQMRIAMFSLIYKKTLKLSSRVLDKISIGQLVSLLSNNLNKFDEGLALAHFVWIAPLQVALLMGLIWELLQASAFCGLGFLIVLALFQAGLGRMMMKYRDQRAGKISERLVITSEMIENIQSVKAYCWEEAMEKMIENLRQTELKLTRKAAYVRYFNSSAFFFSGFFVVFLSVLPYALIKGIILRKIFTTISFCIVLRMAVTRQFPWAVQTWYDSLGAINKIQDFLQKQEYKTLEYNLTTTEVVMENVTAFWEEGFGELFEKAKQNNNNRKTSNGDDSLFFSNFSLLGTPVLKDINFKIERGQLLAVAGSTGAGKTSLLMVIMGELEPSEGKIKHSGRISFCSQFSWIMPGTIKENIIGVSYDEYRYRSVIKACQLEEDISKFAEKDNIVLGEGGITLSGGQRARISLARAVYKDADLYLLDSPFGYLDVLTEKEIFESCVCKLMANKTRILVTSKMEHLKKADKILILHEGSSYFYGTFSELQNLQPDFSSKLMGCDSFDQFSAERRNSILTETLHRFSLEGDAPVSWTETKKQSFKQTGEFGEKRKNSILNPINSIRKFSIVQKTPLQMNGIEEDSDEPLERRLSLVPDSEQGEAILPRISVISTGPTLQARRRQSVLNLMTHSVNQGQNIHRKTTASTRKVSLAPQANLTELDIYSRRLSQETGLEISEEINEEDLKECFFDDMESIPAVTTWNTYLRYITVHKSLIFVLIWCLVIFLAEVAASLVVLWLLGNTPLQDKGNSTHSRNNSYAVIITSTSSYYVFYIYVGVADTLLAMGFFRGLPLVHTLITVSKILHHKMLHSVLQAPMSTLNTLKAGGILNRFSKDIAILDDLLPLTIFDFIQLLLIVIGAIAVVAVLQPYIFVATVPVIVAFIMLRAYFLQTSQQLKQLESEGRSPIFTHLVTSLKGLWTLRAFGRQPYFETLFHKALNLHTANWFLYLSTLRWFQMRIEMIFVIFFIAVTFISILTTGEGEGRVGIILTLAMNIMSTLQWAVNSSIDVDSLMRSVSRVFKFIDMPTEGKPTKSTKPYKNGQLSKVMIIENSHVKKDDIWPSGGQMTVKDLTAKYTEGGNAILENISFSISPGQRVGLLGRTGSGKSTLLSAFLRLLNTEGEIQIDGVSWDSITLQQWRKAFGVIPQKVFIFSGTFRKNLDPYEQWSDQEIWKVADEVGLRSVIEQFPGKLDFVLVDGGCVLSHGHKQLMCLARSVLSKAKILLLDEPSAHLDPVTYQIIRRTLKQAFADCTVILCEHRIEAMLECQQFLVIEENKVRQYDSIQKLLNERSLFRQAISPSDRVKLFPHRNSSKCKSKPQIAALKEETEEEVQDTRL
SMILES,EC50,Emax
"CC(C)C[C@H]1C(=O)N(CCC2CCC3(CCC3)O2)CC(=O)N[C@H](Cc2ccccc2)COc2ccc3ccccc3c2C(=O)N[C@H](C(=O)NCCc2ccc3c(c2)OCO3)CC(=O)N1C (stereo partly drawn) [Example 331, (3S,7S,13R)-9-(2-(5-oxaspiro[3.4]octan-6-yl)ethyl)-N-(2-(benzo[d][1,3]dioxol-5-yl)ethyl)-13-benzyl-7-isobutyl-6-methyl-1,5,8,11-tetraoxo-1,2,3,4,5,6,7,8,9,10,11,12,13,14-tetradecahydronaphtho[1,2-p][1]oxa[4,7,10,14]tetraazacycloheptadecine-3-carboxamide]",121 nM,240%
"CC(C)C[C@H]1C(=O)N(CCC2CCCO2)CC(=O)N[C@H](Cc2ccccc2)COc2ccc3ccccc3c2C(=O)N[C@H](C(=O)NCCc2ccc3c(c2)OCO3)CC(=O)N1C (stereo partly drawn) [Example 332, (3S,7S,13R)-N-(2-(benzo[d][1,3]dioxol-5-yl)ethyl)-13-benzyl-7-isobutyl-6-methyl-1,5,8,11-tetraoxo-9-(2-(tetrahydrofuran-2-yl)ethyl)-1,2,3,4,5,6,7,8,9,10,11,12,13,14-tetradecahydronaphtho[1,2-p][1]oxa[4,7,10,14]tetraazacycloheptadecine-3-carboxamide]",309 nM,183%
"CC(C)C[C@H]1C(=O)N(CCC2CCCOC2)CC(=O)N[C@H](Cc2ccccc2)COc2ccc3ccccc3c2C(=O)N[C@H](C(=O)NCCc2ccc3c(c2)OCO3)CC(=O)N1C (stereo partly drawn) [Example 333, (3S,7S,13R)-N-(2-(benzo[d][1,3]dioxol-5-yl)ethyl)-13-benzyl-7-isobutyl-6-methyl-1,5,8,11-tetraoxo-9-(2-(tetrahydro-2H-pyran-3-yl)ethyl)-1,2,3,4,5,6,7,8,9,10,11,12,13,14-tetradecahydronaphtho[1,2-p][1]oxa[4,7,10,14]tetraazacycloheptadecine-3-carboxamide]",345 nM,182%
"CC(C)C[C@H]1C(=O)N(CCC2CCC3(CCOCC3)CO2)CC(=O)N[C@H](Cc2ccccc2)COc2ccc3ccccc3c2C(=O)N[C@H](C(=O)NCCc2ccc3c(c2)OCO3)CC(=O)N1C (stereo partly drawn) [Example 334, (3S,7S,13R)-9-(2-(2,9-dioxaspiro[5.5]undecan-3-yl)ethyl)-N-(2-(benzo[d][1,3]dioxol-5-yl)ethyl)-13-benzyl-7-isobutyl-6-methyl-1,5,8,11-tetraoxo-1,2,3,4,5,6,7,8,9,10,11,12,13,14-tetradecahydronaphtho[1,2-p][1]oxa[4,7,10,14]tetraazacycloheptadecine-3-carboxamide]",323 nM,232%
"CC(C)C[C@H]1C(=O)N(CCOC(C)(C)C)CC(=O)N[C@H](Cc2ccccc2)COc2ccc3ccccc3c2C(=O)N[C@H](C(=O)NCCc2ccc3c(c2)OCO3)CC(=O)N1C [Example 335, (3S,7S,13R)-N-(2-(benzo[d][1,3]dioxol-5-yl)ethyl)-13-benzyl-9-(2-(tert-butoxy)ethyl)-7-isobutyl-6-methyl-1,5,8,11-tetraoxo-1,2,3,4,5,6,7,8,9,10,11,12,13,14-tetradecahydronaphtho[1,2-p][1]oxa[4,7,10,14]tetraazacycloheptadecine-3-carboxamide]",270 nM,262%
"COC1CC(CCN2CC(=O)N[C@H](Cc3ccccc3)COc3ccc4ccccc4c3C(=O)N[C@H](C(=O)NCCc3ccc4c(c3)OCO4)CC(=O)N(C)[C@@H](CC(C)C)C2=O)C1 (stereo partly drawn) [Example 336, (3S,7S,13R)-N-(2-(benzo[d][1,3]dioxol-5-yl)ethyl)-13-benzyl-7-isobutyl-9-(2-(3-methoxycyclobutyl)ethyl)-6-methyl-1,5,8,11-tetraoxo-1,2,3,4,5,6,7,8,9,10,11,12,13,14-tetradecahydronaphtho[1,2-p][1]oxa[4,7,10,14]tetraazacycloheptadecine-3-carboxamide]",207 nM,212%
"CN1C(=O)C[C@@H](C(=O)NCCc2ccc3c(c2)OCO3)NC(=O)c2c(ccc3ccccc23)OC[C@@H](Cc2ccccc2)NC(=O)CN(C[C@@H]2CCCCO2)C(=O)[C@@H]1CC1CCC1 [Example 337, (3S,7S,13R)-N-(2-(benzo[d][1,3]dioxol-5-yl)ethyl)-13-benzyl-7-(cyclobutylmethyl)-6-methyl-1,5,8,11-tetraoxo-9-(((S)-tetrahydro-2H-pyran-2-yl)methyl)-1,2,3,4,5,6,7,8,9,10,11,12,13,14-tetradecahydronaphtho[1,2-p][1]oxa[4,7,10,14]tetraazacycloheptadecine-3-carboxamide]",452 nM,116%
"CN1C(=O)C[C@@H](C(=O)NCCc2ccc3c(c2)OCO3)NC(=O)c2c(ccc3ccccc23)OC[C@@H](Cc2ccccc2)NC(=O)CN(C[C@H]2CCCCO2)C(=O)[C@@H]1CC1CCC1 [Example 338, (3S,7S,13R)-N-(2-(benzo[d][1,3]dioxol-5-yl)ethyl)-13-benzyl-7-(cyclobutylmethyl)-6-methyl-1,5,8,11-tetraoxo-9-(((R)-tetrahydro-2H-pyran-2-yl)methyl)-1,2,3,4,5,6,7,8,9,10,11,12,13,14-tetradecahydronaphtho[1,2-p][1]oxa[4,7,10,14]tetraazacycloheptadecine-3-carboxamide]",292 nM,173%
"C#CC[C@H]1C(=O)N(CCC2CCCCC2)CC(=O)N[C@H](Cc2ccccc2)COc2ccc3ccccc3c2C(=O)N[C@H](C(=O)NCCc2ccc3c(c2)OCO3)CC(=O)N1C [Example 339, (3S,7S,13R)-N-(2-(benzo[d][1,3]dioxol-5-yl)ethyl)-13-benzyl-9-(2-cyclohexylethyl)-6-methyl-1,5,8,11-tetraoxo-7-(prop-2-yn-1-yl)-1,2,3,4,5,6,7,8,9,10,11,12,13,14-tetradecahydronaphtho[1,2-p][1]oxa[4,7,10,14]tetraazacycloheptadecine-3-carboxamide]",195 nM,237%
"CN1C(=O)C[C@@H](C(=O)NCCc2ccc3c(c2)OCO3)NC(=O)c2c(ccc3ccccc23)OC[C@@H](Cc2ccccc2)NC(=O)CN(C[C@H]2CCCCO2)C(=O)[C@@H]1CC1CC1 [Example 340, (3S,7S,13R)-N-(2-(benzo[d][1,3]dioxol-5-yl)ethyl)-13-benzyl-7-(cyclopropylmethyl)-6-methyl-1,5,8,11-tetraoxo-9-(((R)-tetrahydro-2H-pyran-2-yl)methyl)-1,2,3,4,5,6,7,8,9,10,11,12,13,14-tetradecahydronaphtho[1,2-p][1]oxa[4,7,10,14]tetraazacycloheptadecine-3-carboxamide]",278 nM,139%
"CN1C(=O)C[C@@H](C(=O)NCCc2ccc3c(c2)OCO3)NC(=O)c2c(ccc3ccccc23)OC[C@@H](Cc2ccccc2)NC(=O)CN(CCC2CCCCC2)C(=O)[C@@H]1CC1CC1 [Example 341, (3S,7S,13R)-N-(2-(benzo[d][1,3]dioxol-5-yl)ethyl)-13-benzyl-9-(2-cyclohexylethyl)-7-(cyclopropylmethyl)-6-methyl-1,5,8,11-tetraoxo-1,2,3,4,5,6,7,8,9,10,11,12,13,14-tetradecahydronaphtho[1,2-p][1]oxa[4,7,10,14]tetraazacycloheptadecine-3-carboxamide]",144 nM,237%
"COc1cccc(CCNC(=O)[C@@H]2CC(=O)N(C)[C@@H](CC(C)C)C(=O)N3CCCC[C@H]3C(=O)N[C@H](Cc3ccccc3)COc3ccc4ncoc4c3C(=O)N2)c1 [Example 342, (8S,12S,18aS,21R)-21-benzyl-12-isobutyl-N-(3-methoxyphenethyl)-11-methyl-6,10,13,19-tetraoxo-6,7,8,9,10,11,12,13,16,17,18,18a,19,20,21,22-hexadecahydro-15H-oxazolo[4′,5′:5,6]benzo[1,2-p]pyrido[2,1-f][1]oxa[4,7,10,14]tetraazacycloheptadecine-8-carboxamide]",464 nM,128%
"COc1cccc(CCNC(=O)[C@@H]2CC(=O)N(C)[C@@H](CC(C)C)C(=O)N3CCCC[C@@H]3C(=O)N[C@H](Cc3ccccc3)COc3ccc4ncoc4c3C(=O)N2)c1 [Example 343, (8S,12S,18aR,21R)-21-benzyl-12-isobutyl-N-(3-methoxyphenethyl)-11-methyl-6,10,13,19-tetraoxo-6,7,8,9,10,11,12,13,16,17,18,18a,19,20,21,22-hexadecahydro-15H-oxazolo[4′,5′:5,6]benzo[1,2-p]pyrido[2,1-f][1]oxa[4,7,10,14]tetraazacycloheptadecine-8-carboxamide]",332 nM,270%
"Cc1cc(CCNC(=O)[C@@H]2CC(=O)N(C)[C@@H](CC(C)C)C(=O)N(CCC3CCCCC3)CC(=O)N[C@H](Cc3ccccc3)COc3cnc4ccccc4c3C(=O)N2)on1 [Example 344, (3S,7S,13R)-13-benzyl-9-(2-cyclohexylethyl)-7-isobutyl-6-methyl-N-(2-(3-methylisoxazol-5-yl)ethyl)-1,5,8,11-tetraoxo-1,2,3,4,5,6,7,8,9,10,11,12,13,14-tetradecahydro-[1]oxa[4,7,10,14]tetraazacycloheptadecino[17,16-c]quinoline-3-carboxamide]",126 nM,284%
"CC(C)C[C@H]1C(=O)N(CCC2CCCCC2)CC(=O)N[C@H](Cc2ccccc2)COc2ccc3c(c2C(=O)N[C@H](C(=O)NCCc2ccc4c(c2)OCO4)CC(=O)N1C)OCO3 [Example 345, (8R,14S,18S)-N-(2-(benzo[d][1,3]dioxol-5-yl)ethyl)-8-benzyl-12-(2-cyclohexylethyl)-14-isobutyl-15-methyl-10,13,16,20-tetraoxo-7,8,9,10,11,12,13,14,15,16,17,18,19,20-tetradecahydro-[1,3]dioxolo[4′,5′:5,6]benzo[1,2-p][1]oxa[4,7,10,14]tetraazacycloheptadecine-18-carboxamide]",95 nM,268%
